Reference: patent US9109004B2, “Progesterone receptor antagonists” (Bayer Intellectual Property GmbH, priority 2010, dated 2015)

Key:
[1] = Metabolic stability in human liver microsomes (HLM); format: in vitro ADME; conditions: from HLM half-life, well-stirred model, phase I reactions; 1 μM test compound
Experimental: Metabolic stability of 4-[(11β,17β)-17-hydroxy-3-oxo-17-(pentafluoro-ethyl)estra-4,9-dien-11-yl]benzamide and 4′-[(11β,17β)-17-hydroxy-3-oxo-17-(pentafluoro-ethyl)estra-4,9-dien-11-yl]biphenyl-4-carboxamide in human liver microsomes (HLM) Isolated human liver microsomes (HLM) were used for assessing the metabolic stability of compounds of general formula I. The incubations were carried out with 2.4 ml HLM solution (0.5 mg/ml protein content), 30 μl of the test compound (final concentration 1 μM) and 0.6 ml of the cofactor mixture (=NADPH-generating system of 3 IU glucose-6-phosphate dehydrogenase, 14.6 mg glucose-6-phosphate, 1.2 mg NADP) at 37° C. in 100 mM phosphate buffer at pH 7.4. Samples are taken at 6 time points (2-60 min), precipitated with an equal volume of methanol, and the recovery of the test substances used in the supernatant is determined by LC-MS/MS analysis. The intrinsic clearance of the substance in the liver microsome assay can be calculated from the value found for the half-life of substance breakdown. Using this, on the basis of various physiological characteristics according to the well-stirred model it is possible to predict a (metabolic) in-vivo clearance with respect to phase I reactions.

[2] = Clearance and half-life after intravenous application in rats; format: in vivo, rat; conditions: female rats, i.v. bolus 0.3-0.5 mg/kg
Experimental: Determination of Clearance and Half-Life after Intravenous Application in Rats
The in-vivo clearance and half-life of the test substances were determined in female rats with a body weight of approx. 200-250 g. For this, the test substances (in cassette testing, up to 3 different substances per animal) were applied in dissolved form at a dose of 0.3-0.5 mg/kg as a bolus with a volume of 2 ml/kg intravenously (i.v.) in the caudal vein, using compatible solubilizers such as PEG400 and/or ethanol in a compatible amount. Blood samples of approx. 0.2 mL were taken from a polyurethane catheter in the vena jugularis at the time points 2 min, 8 min, 15 min, 30 min, 45 min, 1 h, 2 h, 4 h, 6 h, 8 h, 24 h. The blood samples were kept in lithium-heparin tubes (Monovetten® from Sarstedt) without shaking, and were centrifuged for 15 min at 3000 rpm. A 100 μL aliquot was taken from the supernatant (plasma) and was precipitated by adding 400 μL of cold methanol. The precipitated samples were frozen out overnight at −20° C., then centrifuged once again for 15 min at 3000 rpm before 150 μL of the clear supernatant was taken for the determination of concentration. Analysis was carried out with an Agilent 1200 HPLC system connected to LCMS/MS detection.
Calculation of the pK Parameters (Via Non-Linear Regression by pK Calculation Software): […]

[3] = biological target: T1, human progesterone receptor B (Homo sapiens, UniProt P06401); assay: Progesterone-receptor-antagonistic action in stably transfected SK-N-MC cells, MTV-LUC reporter (PR-B); format: cell-based; conditions: antagonistic potency vs 0.1 nmol/l promegestone, 24 hours, luciferase
T1 construct: expressed in transfected cells; host or cells: SK-N-MC human neuroblastoma cells, stably transfected
T1 sequence (P06401 1-933): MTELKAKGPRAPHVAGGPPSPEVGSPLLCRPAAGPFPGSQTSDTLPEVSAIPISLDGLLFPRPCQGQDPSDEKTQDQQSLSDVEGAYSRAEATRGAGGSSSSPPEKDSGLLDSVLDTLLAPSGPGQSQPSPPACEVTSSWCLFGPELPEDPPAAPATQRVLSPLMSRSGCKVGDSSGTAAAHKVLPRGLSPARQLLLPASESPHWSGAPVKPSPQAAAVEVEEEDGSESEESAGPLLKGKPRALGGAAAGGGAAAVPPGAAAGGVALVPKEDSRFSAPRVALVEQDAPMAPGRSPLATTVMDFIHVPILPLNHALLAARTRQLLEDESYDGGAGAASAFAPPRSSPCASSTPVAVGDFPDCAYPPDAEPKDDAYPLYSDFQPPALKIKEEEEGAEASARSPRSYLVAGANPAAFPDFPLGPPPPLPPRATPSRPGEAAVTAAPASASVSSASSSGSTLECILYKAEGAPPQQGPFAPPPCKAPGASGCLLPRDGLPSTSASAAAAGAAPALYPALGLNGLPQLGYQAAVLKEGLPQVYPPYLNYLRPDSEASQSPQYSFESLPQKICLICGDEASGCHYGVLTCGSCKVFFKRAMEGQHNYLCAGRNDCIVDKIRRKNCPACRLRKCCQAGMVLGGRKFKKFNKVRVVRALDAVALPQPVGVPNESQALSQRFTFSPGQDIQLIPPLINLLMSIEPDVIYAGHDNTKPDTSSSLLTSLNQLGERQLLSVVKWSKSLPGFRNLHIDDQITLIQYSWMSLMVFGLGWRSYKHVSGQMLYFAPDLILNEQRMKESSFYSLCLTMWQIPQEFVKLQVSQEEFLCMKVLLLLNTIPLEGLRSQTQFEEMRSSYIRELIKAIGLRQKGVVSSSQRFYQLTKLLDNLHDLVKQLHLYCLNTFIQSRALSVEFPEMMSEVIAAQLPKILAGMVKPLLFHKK
Experimental: Progesterone-Receptor-Antagonistic Action in Stable Transfectants of Human Neuroblastoma Cells (SK-N-MC Cells) with the Human Progesterone A or Progesterone B Receptor and an MTV-LUC Reporter Construct
SK-N-MC cells (human neuroblastoma cells) that have been stably transfected with plasmids that express the human progesterone receptor B (pRChPR-B-neo) or the human progesterone receptor A (pRChPR-A-neo) and a reporter construct (pMMTV-LUC), were incubated for 24 hours either in the absence (negative control) or in the presence of increasing amounts of the particular test compound (0.01 nmol/l, 0.1 nmol/l, 1 nmol/l, 10 nmol/l, 100 nmol/l and 1 μmol/l), to determine the agonistic efficacy. As positive control of reporter gene induction, the cells were treated with the synthetic gestagen promegestone (0.01 nmol/l, 0.1 nmol/l, 1 nmol/l, 10 nmol/l, 100 nmol/l and 1 μmol/l). For determination of the antagonistic activity, the cells were treated with 0.1 nmol/l promegestone and additionally with increasing amounts of the particular test compound (0.01 nmol/l, 0.1 nmol/l, 1 nmol/l, 10 nmol/l, 100 nmol/l and 1 μmol/l). The activity of the reporter gene LUC (LUC=luciferase) was determined in the cell lysates and was measured as RLU (relative light units). All measured values are given as % efficacy and as EC50 or IC50 concentrations.

(metabolic) in-vivo clearance in humans predicted [1]: 3.5 mL/min/kg | CLblood [2]: 6.7 mL/min/kg | half-life ([2]; rat, plasma, iv, terminal half-life, read-out: t½ (converted)): 9 h | IC50 [3]: 0.07 nM
Structure (SMILES): C[C@]12C[C@H](c3ccc(-c4ccc(C(N)=O)cc4)cc3)C3=C4CCC(=O)C=C4CC[C@H]3[C@@H]1CC[C@@]2(O)C(F)(F)C(F)(F)F [Example 79, 4′-[(11β,17β)-17-Hydroxy-3-oxo-17-(pentafluoroethyl)estra-4,9-dien-11-yl]biphenyl-4-carboxamide]
